Experimental data published in the NIST ThermoML archive (doi:10.1021/acs.jced.8b00948).

Assay: xn = mol fraction of the nth substance listed
Conditions: for surface tension liquid-gas: Pendant drop shape; for viscosity: 101 kPa, Liquid, Concentric cylinders viscometry

CCn1cc[n+](C)c1.COS(=O)(=O)[O-] [1-ethyl-3-methylimidazolium methylsulfate] + CCCCO
Conditions	surface tension liquid-gas, 298.15 K [mN/m]	surface tension liquid-gas, 303.15 K [mN/m]	surface tension liquid-gas, 308.15 K [mN/m]	surface tension liquid-gas, 313.15 K [mN/m]	viscosity, 298.15 K [mPa·s]	viscosity, 303.15 K [mPa·s]	viscosity, 308.15 K [mPa·s]	viscosity, 313.15 K [mPa·s]
x1 = 0.041	25	24.7	24.3	23.9	3.84	3.3	2.86	2.45
x1 = 0.219	29.9	29.5	29.2	28.9	10.7	8.75	7.38	6.22
x1 = 0.417	35.3	35.1	34.7	34.5	20.3	16.4	13.8	11.4
x1 = 0.571	39.8	39.5	39.2	38.9	29	23.4	19.5	16.2
x1 = 0.731	44.4	44.2	43.9	43.6	41.1	33.1	27.5	22.8
x1 = 0.909	49.8	49.5	49.2	48.9	58.2	46.8	38.4	31.8
x1 = 1	52.5	52.2	51.9	51.6	68.5	55.4	45.5	37.9

CCn1cc[n+](C)c1.COS(=O)(=O)[O-] [1-ethyl-3-methylimidazolium methylsulfate] + CCCO
Conditions	surface tension liquid-gas, 298.15 K [mN/m]	surface tension liquid-gas, 303.15 K [mN/m]	surface tension liquid-gas, 308.15 K [mN/m]	surface tension liquid-gas, 313.15 K [mN/m]	viscosity, 298.15 K [mPa·s]	viscosity, 303.15 K [mPa·s]	viscosity, 308.15 K [mPa·s]	viscosity, 313.15 K [mPa·s]
x1 = 0.059	24.8	24.4	24	23.6	3.71	3.14	2.72	2.36
x1 = 0.228	29.5	29.1	28.8	28.5	9.94	8.07	6.8	5.75
x1 = 0.375	33.6	33.4	33.1	32.8	17	13.7	11.6	9.72
x1 = 0.524	38	37.7	37.4	37.2	24.7	19.8	16.6	13.9
x1 = 0.72	43.8	43.6	43.3	43	38.9	31.3	25.9	21.6
x1 = 0.874	48.6	48.3	48	47.7	52.7	42.5	35.1	29.2
x1 = 1	52.5	52.2	51.9	51.6	68.5	55.4	45.5	37.9

CCCCO [butan-1-ol] + CCn1cc[n+](C)c1.COS(=O)(=O)[O-]
x2 = 0
Conditions	surface tension liquid-gas [mN/m]	viscosity [mPa·s]
298.15 K	23.9	2.57
303.15 K	23.5	2.28
308.15 K	23.1	2.01
313.15 K	22.7	1.75

CCCCO [butan-1-ol] + COS(=O)(=O)[O-].Cn1cc[n+](C)c1
x2 = 0
Conditions	surface tension liquid-gas [mN/m]	viscosity [mPa·s]
298.15 K	23.9	2.57
303.15 K	23.5	2.28
308.15 K	23.1	2.01
313.15 K	22.7	1.75
